The values below come from article PMC11325787, “A fluorescence polarization assay for high-throughput screening of inhibitors against HIV-1 Nef-mediated MHC-I downregulation” (The Journal of Biological Chemistry, 2024).

Peptide text beside a SMILES is read from it. * marks the point of attachment. X1 = CN(C)c1ccc2c(-c3ccc(C(=O)*)cc3C(=O)[O-])c3ccc(=[N+](C)C)cc-3oc2c1; 5TAMRA = CN(C)c1ccc2c(c1)Oc1cc(N(C)C)ccc1C21OC(=O)c2cc(C(=O)*)ccc21

One data set deals with TMR-MHC-ICD. As to the kind of experiment: fluorescence polarisation.
Data set [1] has as its target T1, MBP-Nef-μ1^CTD (UniProt P03406+P35585).
T1 construct: fusing HIV-1 Nef (59–206, NL4.3) to the C terminal domain of μ1 subunit of AP1; to the C terminal domain of μ1 subunit of AP1 via a flexible linker of 20 amino acids; 6xHis (C); made in house; host or cells: Escherichia coli
T1 sequence (P03406 59-206 limits assumed): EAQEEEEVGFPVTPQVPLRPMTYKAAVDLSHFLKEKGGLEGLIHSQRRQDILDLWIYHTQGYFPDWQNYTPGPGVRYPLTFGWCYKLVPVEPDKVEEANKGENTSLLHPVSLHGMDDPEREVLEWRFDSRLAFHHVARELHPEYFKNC
T1 sequence (P35585 168-421 limits assumed): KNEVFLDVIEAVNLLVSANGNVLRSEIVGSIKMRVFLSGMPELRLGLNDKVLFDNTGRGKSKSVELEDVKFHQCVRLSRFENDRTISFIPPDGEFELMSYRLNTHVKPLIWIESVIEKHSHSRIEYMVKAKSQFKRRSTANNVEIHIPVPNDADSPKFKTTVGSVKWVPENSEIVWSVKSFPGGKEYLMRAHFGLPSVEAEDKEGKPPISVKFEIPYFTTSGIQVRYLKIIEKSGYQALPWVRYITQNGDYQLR
Briefly: Fluorescence polarization binding assay of TMR-labelled MHC-ICD probes with the Nef-μ1^CTD fusion. Further details: species or system HIV-1 (Nef 59–206, NL4.3). Particulars: 50 nM probe.
Procedure: The assay volume was miniaturized and kept at 15 μl for compatibility with HTS.
Purified MBP-Nef-μ1^CTD was buffer exchanged into the assay buffer (50 mM Tris, 150 mM NaCl, 0.5 mM DTT, 0.01% Triton X-100, pH 8.0). A stock protein solution of 120 μM Nef-μ1^CTD was then prepared and was subsequently used to create different dilutions. Assays were carried out in Corning 384-well black microplates (3820). In each well, 50 nM TMR-labeled MHC-ICD peptide was mixed with MBP-Nef-μ1^CTD at varied concentrations in a total volume of 15 μl. The plate was incubated for 1∼2 h at room temperature with minimal exposure to light. FP was then measured using the EnVision plate reader (PerkinElmer) with excitation at 535 nm and emission at 595 nm. Experiments were done in triplicates. Data was fitted to nonlinear regression and plotted as a function of protein concentration in a logarithmic scale using OriginLab.
The adjusted data was then fitted to nonlinear regression for one-site binding using the following equation: Y = Bmax∗X/(KD + X) (Bmax: maximum specific binding in the same units as Y).

Data set [2] can be described thus: Stability of the probes on the bench. Particulars: room temperature.
Data set [3] deals with T1, MBP-Nef-μ1^CTD. Type of data set: binding, HIV-1 (Nef 59–206, NL4.3). To be noted: 300 μM, result in words; for effect on FP signal: 30 μM MBP-Nef-μ1^CTD, 50 nM TMR-enhanced-MHC-ICD, room temperature; for effect on FP signal / noise in the assay: final dimethylsulfoxide 3%; for background of the assay: not shown.
A short description of data set [4]: Precipitation/solubility of competitor peptide observed during experiments. Type of data set: physicochemical. To be noted: seen during experiments; stock solution 1.2 mM; result in words.
The target in data set [5] is T1, MBP-Nef-μ1^CTD. Briefly: Competition of TMR-enhanced-MHC-ICD by unlabeled enhanced-MHC-ICD peptide (FP). Particulars: room temperature, result in words. The class given is binding, HIV-1 (Nef 59–206, NL4.3). An excerpt: We next investigated whether our assay is sensitive to competitive inhibition. Here, an unlabeled, modified MHC-ICD peptide was used as the competitor. The sequence of this competitor peptide is different from the authentic sequence of MHC-ICD in the following ways. […] Second, to improve the solubility of the competitor peptide, we introduced three additional mutations in the MHC-ICD sequence: Q322E, G325S, and S326D. According to the previous structure, these mutations should not interfere with Nef-μ1^CTD binding but should increase the peptide’s hydrophilicity.
The Nef-μ1^CTD fusion was constructed by fusing HIV-1 Nef (59–206, NL4.3) to the C terminal domain of μ1 subunit of AP1 via a flexible linker of 20 amino acids. Gene encoding the above Nef-μ1^CTD fusion was cloned into a modified pMAT9 expression vector with a 6xHis tag introduced at the C-terminus of the fusion protein. Escherichia coli cells transformed with the plasmid were grown at 37 °C till A600 reached 0.8. Protein expression was then induced with 0.1 mM IPTG and continued at 16 °C overnight. Cells were then lysed using sonication. The protein of interest was purified sequentially through a Ni-NTA affinity column, a MBP affinity column, a HiTrap Q anion exchange column, and finally a Superdex 200 size exclusion column.
For competition using unlabeled enhanced-MHC-ICD peptide, a stock solution of 1.2 mM unlabeled enhanced-MHC-ICD peptide was first prepared. The stock solution was then serial-diluted (2-fold each) 10 times. […] The plate was incubated at room temperature and read at different time points. FP values were recorded. All experiments were done in triplicates.

The compound “MBP-Nef-μ1^CTD fusion protein (from UniProt P03406;P35585)” came in with a Kd with TMR-MHC-ICD of 44.1 µM.
In the case of TMR-SDSQAAGSRSAQ [TMR-mutant-MHC-ICD], the “FP signal at Nef-μ1^CTD concentration beyond 50 μM” value at MBP-Nef-μ1^CTD [1] (Nef-μ1^CTD >50 μM, noise believed to be light scattering of MBP-Nef-μ1^CTD, result in words) is reported as “increased modestly”. Further, the stability of probe result in data set [2] is given as “at least 20 h”.
`C[C@H](NC(=O)[C@H](C)NC(=O)[C@H](CCC(N)=O)NC(=O)[C@H](CO)NC(=O)[C@H](Cc1ccc(O)cc1)NC(=O)[C@H](CO)NC(=O)c1ccc(-c2c3ccc(=[N+](C)C)cc-3oc3cc(N(C)C)ccc23)c(C(=O)[O-])c1)C(=O)NCC(=O)N[C@@H](CO)C(=O)N[C@@H](CC(=O)O)C(=O)N[C@@H](CO)C(=O)N[C@@H](C)C(=O)N[C@@H](CCC(N)=O)C(=O)O` [TMR-MHC-ICD] (X1-SYSQAAGSDSAQ-OH; N-terminus and C-terminus assumed): the Kd at MBP-Nef-μ1^CTD [1] (FP, MBP-Nef-μ1^CTD varied, 15 μl, 384-well, 50 mM Tris, 150 mM NaCl, 0.5 mM DTT, 0.01% Triton X-100, pH 8.0, 1∼2 h, room temperature, ex 535 nm, em 595 nm, triplicates, TMR-mutant-MHC-ICD signal subtracted, one-site binding fit, read-out: KD (dissociation constant)) is 44.1 µM. Further, on MBP-Nef-μ1^CTD [1] (low Nef-μ1^CTD concentrations, result in words), the “signal window (difference between probe and TMR-mutant-MHC-ICD curves)” value is reported as “very modest”. Further, the stability of probe result in data set [2] was “at least 20 h”.
For the compound `O=C(N[C@H](CO)[C@H](O)c1ccc([N+](=O)[O-])cc1)C(Cl)Cl` [chloramphenicol], on MBP-Nef-μ1^CTD [3], the “effect on FP signal” value is given as “did not lead to any meaningful decrease of the FP signal”, the “noise in the assay” value was “did not cause noise” and the “background of the assay” value is “no fluctuation at all”.
For `CC(C)C[C@H](NC(=O)[C@H](CCC(=O)O)NC(=O)[C@H](CO)NC(=O)[C@H](Cc1ccc(O)cc1)NC(=O)[C@@H](N)CO)C(=O)N[C@@H](C)C(=O)N[C@@H](CO)C(=O)N[C@@H](CC(=O)O)C(=O)N[C@@H](CC(=O)O)C(=O)N[C@@H](CO)C(=O)N[C@@H](C)C(=O)N[C@@H](CCC(N)=O)C(=O)O` [unlabeled enhanced MHC-ICD peptide] (H-SYSELASDDSAQ-OH; N-terminus and C-terminus assumed), the precipitation entry in data set [4] is “sometimes forms precipitates”. In addition, at MBP-Nef-μ1^CTD [5] (30 μM MBP-Nef-μ1^CTD, 50 nM TMR-enhanced-MHC-ICD, varied competitor, triplicates), the “effect on FP signal (displacement of TMR-enhanced-MHC-ICD probe)” value is reported as “dose-dependent decrease of the FP signal”. Further, the “competition of the fluorescence-labeled probe after 1-h incubation” value at MBP-Nef-μ1^CTD [5] (1-h incubation, three independent samples, one-way ANOVA p < 0.0001) is listed as “successfully observed”. Besides, the “competition signals after 4 h” value at MBP-Nef-μ1^CTD [5] (4 h, three independent samples, longer incubation led to a gradual decrease of the FP signal (not shown)) was “remained stable”.
Consider `CC(C)C[C@H](NC(=O)[C@H](CCC(N)=O)NC(=O)[C@H](CO)NC(=O)[C@H](Cc1ccc(O)cc1)NC(=O)[C@H](CO)NC(=O)c1ccc2c(c1)C(=O)OC21c2ccc(N(C)C)cc2Oc2cc(N(C)C)ccc21)C(=O)N[C@@H](C)C(=O)NCC(=O)N[C@@H](CO)C(=O)N[C@@H](CC(=O)O)C(=O)N[C@@H](CO)C(=O)N[C@@H](C)C(=O)N[C@@H](CCC(N)=O)C(=O)O` [TMR-enhanced-MHC-ICD] (5TAMRA-SYSQLAGSDSAQ-OH), for which the stability of probe result in data set [2] was “at least 20 h”.
`OC[C@H]1O[C@H](O[C@H]2[C@H](O)[C@@H](O)C(O)O[C@@H]2CO)[C@H](O)[C@@H](O)[C@@H]1O` (mixture of isomers) [maltose]: at MBP-Nef-μ1^CTD [3], the “effect on FP signal” value is on record as “did not lead to any meaningful decrease of the FP signal”, the “noise in the assay” value is given as “did not cause noise” and the “background of the assay” value is recorded as “no fluctuation at all”.
